Reference: US7504538B2, “Amide or thioamide derivatives and their use in the treatment of pain” (Cara Therapeutics, Inc., priority 2003, dated 2009)

Legend:
[1] = target: T1, hCB2-R (Homo sapiens, UniProt P34972); test: CB2 ligand binding assay ([3H]-CP55940 displacement, CHO-K1 membranes); settings: 0.3-0.5 nM [3H]-CP55940, CB2 membranes, 2 h at 30° C.; read-out: Binding constants (Ki) to hCB2-R
T1 construct: expressed in transfected cells; membranes
From the text: (§1) The biological assays used were essentially set up as described in Munro, S., Thomas, K. L., Abu-Shaar, M. in “Molecular characterisation of a peripheral receptor for cannabinoids” Nature 365:61-65 (1993) and Kim, S. H. and Chung, J. M. in “An experimental model for peripheral neuropathy produced by segmental spinal nerve ligation in the rat” Pain 50:355-363 (1992).
Monoclonal HEK cell lines with stable expression of the human CB1 receptor and CHO-K1 cell lines with stable expression of hCB2-R were established. The CB binding assays were performed with membranes prepared from these cell lines. The CB2 ligand binding mixture contains 0.3-0.5 nM [^3H]-CP55940, 7 μg of CB2 membranes and the test compounds in a concentration range of from 1.0×10^−4 to 1.0×10^−12 M. The assay buffer comprises 50 mM Tris-HCl (pH 7.4), 5 MM MgCl2, 2.5 mM EDTA and 5 mg/ml fatty acid-free bovine serum albumin. The binding mixtures are incubated for 2 h at 30° C. and terminated by rapid filtration (Brandel 96 well cell harvester) over 934AH filters (Whatman) followed by 6 washes with ice-cold binding buffer. The filters are dried and [^3H]-CP55940 bound radioactivity is determined by liquid scintillation counting. Non-specific binding is determined in the presence of 10 μM CP55940. The binding data is analysed with the program GraphPad Prism (provided by GraphPad Software, San Diego, Calif., USA).

[2] = test system: rats; test: Formalin flinch test (inflammatory pain); assay type: in vivo; settings: rat; for A50 Formalin Phase II: inflammatory phase (10-60 min); for A50 Formalin Phase I: tonic phase (first 10 min)
From the text: as §1
(§2) Inflammatory (Formalin flinch test) and chronic pain (L5/L6 nerve ligation injury) models were used as assays in both rats and mice.
Animals are habituated to the their local environment for about 30 min prior to testing. The formalin test is carried out in a 30×30×30 cm chamber with the front and bottom of the chambers made of clear plexiglass. Mirrors are placed at a 45° angle under the chambers in order to have an un-obstructive view of the paws. Animals are restrained manually and 2% formalin (aq) is injected subcutaneously into the planar surface of the left paw with a 30 gauge needle. The numbers of paw flinches are then recorded in 5 min intervals from the time of injection for a 60 min period. Elevations of the paw, licking and biting of the injected paw were counted as “flinches”. The tonic or “first phase” of the nociceptive response peaked at 5 min after formalin injection and the inflammatory or “second phase” peaked at 30 min after formalin injection. The number of flinches in the first 10 min were representative of the tonic phase and the number of flinches from 10 min until 60 min were representative of the inflammatory phase. Antinociception for both phase I and phase II was calculated as follows: % antinociception=100×(# of flinches in control animal−# of flinches in drug treated animal)/(# of flinches in control animal)
Potency (A50) is calculated from the full dose response curve for both phase I and phase II.

[3] = test system: rats; test: L5/L6 nerve ligation injury, tactile allodynia (von Frey); assay type: in vivo; settings: rat
From the text: as §1, §2
Nerve ligation injury was performed according to the method described previously (Kim and Chung). This methodology produces signs of tactile allodynia and thermal hyperalgesia. Rats were anesthetized with halothane and the L5 and L6 spinal nerves were exposed, carefully isolated, and tightly ligated with 4-0 silk suture distal to the dorsal root ganglia (DRG). After ensuring homeostatic stability the wounds were sutured, and the animals were allowed to recover in individual cages. Sham-operated rats were prepared in an identical fashion except that the L5 and L6 spinal nerves were not ligated. Compound 17 was tested in rats after L5/L6 nerve ligation. […]
In the evaluation of the tactile allodynia, the paw withdrawal threshold was determined in response to probing with calibrated von Frey filaments. […] The 50% paw withdrawal threshold was determined by the nonparametric method. […]

[4] = test system: rats; test: L5/L6 nerve ligation injury, thermal hyperalgesia; assay type: in vivo; settings: rat
From the text: as §1, §2
Nerve ligation injury was performed according to the method described previously (Kim and Chung). This methodology produces signs of tactile allodynia and thermal hyperalgesia. Rats were anesthetized with halothane and the L5 and L6 spinal nerves were exposed, carefully isolated, and tightly ligated with 4-0 silk suture distal to the dorsal root ganglia (DRG). After ensuring homeostatic stability the wounds were sutured, and the animals were allowed to recover in individual cages. Sham-operated rats were prepared in an identical fashion except that the L5 and L6 spinal nerves were not ligated. Compound 17 was tested in rats after L5/L6 nerve ligation. Compound administration was directly into the hind paw (i.paw) or into the peritoneal cavity (i.p.).

T1 sequence (P34972 whole entry): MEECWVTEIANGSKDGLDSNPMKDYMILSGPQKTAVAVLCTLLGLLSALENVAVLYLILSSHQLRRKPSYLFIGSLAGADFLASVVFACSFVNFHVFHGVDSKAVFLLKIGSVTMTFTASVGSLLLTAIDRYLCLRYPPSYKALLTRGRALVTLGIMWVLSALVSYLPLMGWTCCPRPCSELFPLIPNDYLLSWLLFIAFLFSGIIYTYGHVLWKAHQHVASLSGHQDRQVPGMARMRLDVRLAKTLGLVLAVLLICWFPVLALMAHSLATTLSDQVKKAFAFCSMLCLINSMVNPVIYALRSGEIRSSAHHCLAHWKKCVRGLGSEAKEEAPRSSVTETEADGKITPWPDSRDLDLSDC

## NC(=O)CCCN(CCCC1CCCC1)C(=O)Nc1ccccc1 [Compound 15, 4-[1-(3-cyclopentylpropyl)-3-phenylureido]butyr-amide]
[1]
  Ki: 210 nM

## CC(C)c1ccc(CN(CCCC(N)=O)C(=O)Nc2ccccc2)cc1 [Compound 4, 4-[1-(4-isopropylbenzyl)-3-phenylureido]butyramide]
[1]
  Ki: 780 nM

## Cc1c(C(=O)c2cccc3ccccc23)c2cccc3c2n1[C@H](CN1CCOCC1)CO3 [WIN-55, 212-2, reference compound]
[2]; i. paw
  A50 Formalin Phase II: 25 mg/paw
  A50 Formalin Phase I: 12 mg/paw

## NC(=O)CCCN(CCCCCCc1ccccc1)C(=O)Nc1ccccc1 [Compound 2, 4-[3-phenyl-1-(6-phenylhexyl)ureido]butyramide]
[1]
  Ki: 450 nM

## NC(=O)CCCCCCCN(CCCC1CCCCC1)C(=O)Cc1ccc2ccccc2c1 [Compound 9, 8-[(3-cyclohexylpropyl)-(2-naphthalen-2-yl-acetyl)amino]-octanamide]
[1]
  Ki: 15000 nM

## CC(C)CCCN(CCCC(N)=O)C(=O)Nc1ccccc1 [Compound 5, 4-[1-(4-methylpentyl)-3-phenylureido]butyramide]
[1]
  Ki: 1100 nM

## NC(=O)CCCN(CCCCCc1ccccc1)C(=O)Nc1ccccc1 [Compound 16, 4-[3-phenyl-1-(5-phenylpentyl)ureido]butyramide]
[1]
  Ki: 130 nM

## NC(=O)CCCN(CCc1ccccc1)C(=O)Nc1ccccc1 [Compound 13, 4-(1-phenethyl-3-phenylureido)butyramide]
[1]
  Ki: 450 nM

## CCCCc1ccc(CN(CCCC(N)=O)C(=O)Nc2ccccc2)cc1 [Compound 3, 4-[1-(4-butylbenzyl)-3-phenylureido]butyramide]
[1]
  Ki: 120 nM

## NC(=O)CCCN(CCc1ccc2ccccc2c1)C(=O)Nc1ccccc1 [Compound 11, 4-[1-(2-naphthalen-2-yl-ethyl)-3-phenylureido]butyr-amide]
[1]
  Ki: 770 nM

## NC(=O)[C@@H]1CCCC[C@H]1N(CCCC1CCCCC1)C(=O)Nc1ccccc1 (relative stereo) [Compound 7, trans-2-[1-(3-cyclohexylpropyl)-3-phenylureido]cyclo-hexanecarboxamide]
[1]
  Ki: 1500 nM

## NC(=O)CCCN(CCCC1CCCCC1)C(=O)Cc1ccc2ccccc2c1 [Compound 8, 4-[(3-cyclohexylpropyl)-(2-naphthalen-2-yl-acetyl)amino]-butyramide]
[1]
  Ki: 2700 nM

## O=C(CCCN(CCCC1CCCCC1)C(=O)Nc1ccccc1)NCc1ccc(Cl)cc1 [Compound 6, N-(4-chlorobenzyl)-4-[1-(3-cyclohexylpropyl)-3-phenyl-ureido]butyramide]
[1]
  Ki: 2200 nM

## C[C@@H](C(=O)N(CCCC(N)=O)CCCC1CCCCC1)c1ccccc1 [Compound 1, (R)-4-[(3-cyclohexylpropyl)-(2-phenylpropionyl)amino]-butyramide]
[1]
  Ki: 2900 nM

## NC(=O)CCCN(CCC1CCCCC1)C(=O)Nc1ccccc1 [Compound 12, 4-[1-(2-cyclohexylethyl)-3-phenylureido]butyramide]
[1]
  Ki: 410 nM

## NC(=O)CCCN(CCCC1CCCCC1)C(=O)Nc1ccccc1 [Compound 17, 4-[1-(3-cyclohexylpropyl)-3-phenylureido]butyramide]
[2]; i. paw
  A50 Formalin Phase II: 28 mg/paw
  A50 Formalin Phase I: <10 mg/paw
[2]; i.p.
  A50 Formalin Phase II: 0.01 mg/kg
  A50 Formalin Phase I: <0.01 mg/kg
[3]; L5/L6 nerve ligation, 100 μg (in 50 μl) into the paw
  antiallodynic effect: 90%
[3]; i. paw
  A50 L5/L6 anti-allodynia: <30 mg/paw
[4]; L5/L6 spinal nerve ligation, 30 μg (in 50 μl) into the paw
  antihyperalgesic response to the thermal testing: 100%
[4]; i. paw
  A50 L5/L6 anti-hyperalgesia: <30 mg/paw
[1]
  Ki: 110 nM

## NC(=O)CCCN(Cc1ccccc1)C(=O)Nc1ccccc1 [Compound 14, 4-(1-benzyl-3-phenylureido)butyramide]
[1]
  Ki: 840 nM

## NC(=O)CCCN(CCCC1CCCCC1)C(=O)Nc1ccc2ccccc2c1 [Compound 10, 4-[1-(3-cyclohexylpropyl)-3-naphthalen-2-yl-ureido]-butyramide]
[1]
  Ki: 1000 nM
